In article PMC5674823, “Cloning, expression and identification of KTX-Sp4, a selective Kv1.3 peptidic blocker from Scorpiops pococki” (Cell & Bioscience, 2017):
Bridge positions count the residues as written; N and C are the ends. Ends that are not written are not given here.

What was measured:
[1] = molecular target: T1, endogenous Kv1.3 expressed by human Jurkat T cells (Homo sapiens, UniProt P22001); experiment: Whole-cell patch-clamp, endogenous Kv1.3 currents in Jurkat T cells; type: cell-based
T1 construct: endogenous Kv1.3 expressed by human Jurkat T cells; endogenous in cells; host or cells: Jurkat E6-1 T cells (ATCC TIB152)
Method: (§1) Jurkat E6-1 T cells (ATCC TIB152) and HEK293T cells (ATCC ACS4500) were maintained in RPMI medium 1640 (Invitrogen, Carlsbad, CA, USA) and Dulbecco’s modified Eagle’s medium (DMEM) (Life Technologies, GrandIsland, NY, USA), supplemented with 10% fetal bovine serum (Life Technologies), 100 units/ml penicillin, 100 μg/ml streptomycin, respectively. Cells were cultured in a humidified incubator at 37 °C with 5% CO2. The cDNAs encoding mKv1.1, mKv1.1-AEHS/PSGN, hKv1.2 and mKv1.3 [18] were subcloned into the XhoI/BamHI sites of a bicistronic vector, pIRES2-EGFP (Clontech, USA), then transiently transfected into HEK293-T cells using Lipofectamine 2000 (Invitrogen) for electrophysiological experiments.
(§2) Whole-cell patch-clamp recordings were performed using an EPC 9 amplifier (HEKA Elektronik, Lambrecht/Pfalz, Germany) at room temperature (22–24 °C). Pipettes pulled from borosilicate glass (BF 150-86-10; Sutter Instrument Company, Novato, CA, USA) had resistances of 2–4 MΩ when filled with the internal solution. The internal pipette solution for recording Kv currents on DRG neurons contained: 120 mM potassium gluconate, 20 mM KCl, 10 mM EGTA, 10 mM HEPES, 5 mM Na2-ATP, 2 mM MgCl2, 1 mM CaCl2 (pH 7.3 withKOH). […]

[2] = tested on: voltage-gated potassium channels on DRG cells; experiment: Whole-cell patch-clamp, voltage-gated K+ currents in acutely isolated DRG cells; type: cell-based, mouse; conditions: 1 μM peptide, +50 mV 400 ms pulse from -60 mV
Method: Mouse spinal columns were removed and placed in ice-cold HBSS; neurons were acutely dissociated and maintained as described. In brief, laminectomies were performed and bilateral DRG were dissected out. After removal of connective tissues, DRG were transferred to a 1 ml Ca^2+/Mg^2+-free HBSS containing 2 μl saturated NaHCO3, 0.35 mg L-cysteine and 20 U papain (Worthington, Lakewood, NJ, USA), and incubated at 37 °C for 10 min. The suspension of DRG was centrifuged, the supernatant was removed, 1 ml Ca^2+/Mg^2+-free HBSS containing 4 mg collagenase type II and 1.25 mg dispase type II (Worthington) was added and incubated at 37 °C for 10 min. After digestion, neurons were pelleted, suspended in neurobasal medium containing 2% B-27 supplement, 1% L-glutamine, 100 U/ml penicillin plus 100 μg/ml streptomycin, and 50 ng/ml nerve growth factor, plated on a 12 mm coverslip coated with poly-L-lysine (10 μg/ml) and cultured under a humidified atmosphere of 5% CO2/95% air at 37 °C for 18–24 h before use.
Whole-cell patch-clamp recordings were performed using an EPC 9 amplifier (HEKA Elektronik, Lambrecht/Pfalz, Germany) at room temperature (22–24 °C). Pipettes pulled from borosilicate glass (BF 150-86-10; Sutter Instrument Company, Novato, CA, USA) had resistances of 2–4 MΩ when filled with the internal solution. […]

mKv1.3 = molecular target: T2, mKv1.3 (Mus musculus, UniProt P16390); experiment: Whole-cell patch-clamp, mKv1.3 heterologously expressed in HEK293T cells; type: cell-based
T2 construct: expressed in transfected cells; host or cells: HEK293T cells, pIRES2-EGFP vector
Method: as §1, §2

mKv1.1 = experiment: Whole-cell patch-clamp, Kv1.1 heterologously expressed in HEK293T cells; type: cell-based, mouse; conditions: 1 μM peptide
Method: as §1, §2

hKv1.2 = experiment: Whole-cell patch-clamp, Kv1.2 heterologously expressed in HEK293T cells; type: cell-based, human; conditions: 1 μM peptide
Method: as §1, §2

mKv1.1-AEHS/PSGN = molecular target: T3, mKv1.1-AEHS/PSGN (Mus musculus, UniProt P16388, A352P/E353S/H355G/S357N); experiment: Whole-cell patch-clamp, turret mutant Kv1.1-AEHS/PSGN expressed in HEK293T cells; type: cell-based; conditions: four Kv1.1 turret residues replaced by those of Kv1.3, mean ± SE of six experiments, SEM, read-out: IC50 on Kv1.1-AEHS/PGSN mutant channel
T3 construct: expressed in transfected cells; host or cells: HEK293T cells, pIRES2-EGFP vector
Method: as §1, §2

T1 sequence (P22001 whole entry): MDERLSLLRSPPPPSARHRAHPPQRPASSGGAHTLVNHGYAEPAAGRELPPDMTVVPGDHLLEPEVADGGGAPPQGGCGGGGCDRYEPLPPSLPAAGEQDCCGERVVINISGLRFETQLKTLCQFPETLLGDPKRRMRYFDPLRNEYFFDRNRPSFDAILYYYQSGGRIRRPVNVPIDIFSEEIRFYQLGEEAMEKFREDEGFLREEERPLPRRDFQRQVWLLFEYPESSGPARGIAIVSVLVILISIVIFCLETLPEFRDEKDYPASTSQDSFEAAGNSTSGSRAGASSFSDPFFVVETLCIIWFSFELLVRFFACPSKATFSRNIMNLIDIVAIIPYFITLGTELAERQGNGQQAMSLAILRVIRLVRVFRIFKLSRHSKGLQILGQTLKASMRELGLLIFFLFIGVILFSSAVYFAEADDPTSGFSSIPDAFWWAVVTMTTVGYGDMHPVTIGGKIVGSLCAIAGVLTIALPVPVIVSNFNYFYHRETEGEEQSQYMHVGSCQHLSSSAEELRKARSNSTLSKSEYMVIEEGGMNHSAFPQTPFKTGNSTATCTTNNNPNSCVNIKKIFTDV
T2 sequence (P16390 whole entry): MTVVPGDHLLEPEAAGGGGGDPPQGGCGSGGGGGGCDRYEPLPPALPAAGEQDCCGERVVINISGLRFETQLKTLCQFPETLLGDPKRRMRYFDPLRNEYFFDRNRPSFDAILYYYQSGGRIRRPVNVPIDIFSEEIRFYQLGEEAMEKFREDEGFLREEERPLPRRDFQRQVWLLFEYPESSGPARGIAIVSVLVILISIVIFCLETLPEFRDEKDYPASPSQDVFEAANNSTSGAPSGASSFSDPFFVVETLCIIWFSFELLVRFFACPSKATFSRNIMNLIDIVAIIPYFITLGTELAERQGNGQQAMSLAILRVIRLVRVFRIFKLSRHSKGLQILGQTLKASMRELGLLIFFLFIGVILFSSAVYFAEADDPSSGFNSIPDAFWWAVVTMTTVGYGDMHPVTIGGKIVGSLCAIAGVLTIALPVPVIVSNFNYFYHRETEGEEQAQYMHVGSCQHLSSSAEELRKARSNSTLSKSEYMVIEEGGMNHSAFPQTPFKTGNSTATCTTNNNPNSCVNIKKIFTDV
T3 sequence (P16388 whole entry A352P/E353S/H355G/S357N): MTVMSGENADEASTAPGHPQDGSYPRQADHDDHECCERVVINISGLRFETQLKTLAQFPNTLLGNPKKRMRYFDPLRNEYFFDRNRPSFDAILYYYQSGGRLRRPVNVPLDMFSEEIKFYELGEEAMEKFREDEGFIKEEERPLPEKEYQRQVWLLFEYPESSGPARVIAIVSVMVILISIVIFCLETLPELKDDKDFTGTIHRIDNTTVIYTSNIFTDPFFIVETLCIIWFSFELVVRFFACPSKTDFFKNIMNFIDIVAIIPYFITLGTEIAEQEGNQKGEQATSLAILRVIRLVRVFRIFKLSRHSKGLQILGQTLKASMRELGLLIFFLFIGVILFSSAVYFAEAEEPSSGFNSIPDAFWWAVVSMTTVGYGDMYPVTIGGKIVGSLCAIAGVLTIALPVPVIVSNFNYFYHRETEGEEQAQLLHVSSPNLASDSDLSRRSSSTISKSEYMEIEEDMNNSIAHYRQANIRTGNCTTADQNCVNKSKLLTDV

With “AFPSENPTGGCPLSDNVCSSYCKKNKFGNEGKCHGTICKCSIK (disulfide 11-33, 18-38, 22-40 (inferred)) [KTX-Sp4]” the “Reversibility of suppressive effect on Kv1.3 after washout” value ([1]; Jurkat T cells, bath application, washout) was “partially reversible”, the IC50 ([1]; whole-cell patch-clamp, +50 mV 400 ms pulse from -60 mV, almost zero cytosolic Ca2+ pipette solution, Hill fit, n = 8, read-out: IC50 of inhibition of Kv1.3 current in Jurkat T cells) was 235 ± 3.36 nM and the “Inhibitory effect on voltage-gated K+ currents on DRG cells” value [2] was “no significant inhibitory effect”. For the same sequence, the IC50 (mKv1.3; HEK293T cells, steady-state current at end of depolarizing pulse, n = 10, read-out: IC50 on wild-type mKv1.3-mediated steady-state current) was 24.7 ± 10.8 nM, the “Blocking activity on Kv1.3, times weaker than that of J123” value (mKv1.3; comparison with J123) was 31 times and the “Reduction of maximum current of Kv1.1 channel” value (mKv1.1) was “about 20.85%”. The “Reduction of maximum current of Kv1.2 channel” value (hKv1.2) was ~7.23% and the IC50 (mKv1.1-AEHS/PSGN) was 12.1 ± 4.08 nM.
